# Experimental data published in patent US4738963A, “Method for the treatment of incontinence in mammals” (Beecham Group p.l.c., priority 1985, dated 1988).
# Read-outs that look alike come from different tables or passages of the source.
# How the values were obtained:
# Type in all cases: cell-based
# [1] = system: Rat isolated portal vein; assay: Rat isolated portal vein: spontaneous contractions and contractions due to added calcium; details: 0.25 h
# Method: (1) Rat isolated portal vein.
# Male Sprague Dawley rats (250-350) were killed by cervical dislocation. Portal veins (2-3 cm in length) were set up under 0.8-1 g tension in a 10 ml organ bath containing Krebs-Henseleit solution, at 37° C., of the following composition (mM): NaCl 118, NaHCO3 25, glucose 5, KH2 PO4 1.18, KCl 4.69, MgSO4 0.59, CaCl2.H2 O 1.87. The tissue was aerated with a 95% oxygen and 5% carbon dioxide mixture. Isometric tension was recorded using a Devices strain gauge and recorder. Each preparation was allowed 1 h to equilibrate before the addition of test compound. The ability of a compound to inhibit the contractions due to added calcium (3 mM CaCl2) was determined in tissues bathed in Krebs-Henseleit solution containing 0.05 mM CaCl2 (in order to reduce spontaneous contractions). Then percentage inhibition (mean± s.e.m.; 6-9 tissues) of the amplitude of the spontaneous contractions, and contractions due to added calcium, was determined after 15 min contact time with test compound.
# [2] = system: rat urinary bladder (detrusor) strip; assay: Rat Detrusor Strip Screen: inhibition of electrically induced isometric contractions
# Method: Rat Detrusor Strip Screen
# Male Wistar Charles River rats (Crl: WI BR) weighing 300-350 g were used.
# The urinary bladder was removed and a longitudinal strip 3 mm wide was cut from the urethra to the apex of the bladder.
# The strip was immediately immersed in a 20 ml bath containing Tyrode with double millimolar concentration of glucose (11.1 instead of 5.55) and with addition of sucrose (13.3 millimolar), kept at 37° C. and aerated with a mixture of O2 95% and CO2 5%.
# Tyrode composition was (mM): NaCl 136.8, KCl 2.68, CaCl2 1.80, MgSO4.7H2 O 1.05, NaH2 PO4.H2 O 0.41, NaHCO3 11.9, glucose 11.1 sucrose 13.3. The strip was in direct contact with one of the two platinum electrodes placed on the top and bottom of the organ bath. Placed under an initial tension of 2 g, the strip was then allowed to relax until a baseline of about 1 g. After a 5 min equilibration period isometric contractions were induced by a GRASS S88 2 channel stimulator using the following parameters trains of pulses of 2 sec duration each every 100 sec; square wave pulse of volts (60-70); duration 0.7 ms and 30 Hz.
# When the contractions became constant (60-90 min), the strips were exposed to the test compound. The isometric contractions were measured with a Basile DYl force transducer connect to Battaglia Rangoni 4 channel recorder. The results are expressed as per cent of contraction inhibition.
# [3] = system: Rabbit isolated mesenteric artery; assay: Rabbit isolated mesenteric artery: relaxation of contractions due to KCl; details: Oryctolagus cuniculus
# Method: (2) Rabbit isolated mesenteric artery.
# Mesenteric arteries (3 mm rings) were removed from male New Zealand White rabbits and mounted, at a resting tension of 1.5-2.0 g, in a 10 ml organ bath containing a Ringer solution, at 37° C., of the following composition (mM): NaCl 120.8; KCl 5.9; CaCl2 2.5; MgCl2 1.2; HEPES 5.8; glucose 11.5. The bathing solution was bubbled with a 95% oxygen and 5% carbon dioxide mixture. Each preparation was allowed 1-11/2h to equilibrate before the addition of either 30 or 90 mM KCl to contract the tissue. The ability of test compound to relax the sustained contraction due to KCL was determined by assessing the % reduction (mean± s.e.m.; 4-9 tissues) produced by varying concentrations of test compound.
SMILES,Mean % inhibition ([2]; Molar Conc 1 × 10^-5) [%],Mean % inhibition ([2]; Molar Conc 3 × 10^-5) [%],further results
"CC1(C)Oc2ccc(C#N)cc2[C@@H](N2CCCC2=O)[C@@H]1O (relative stereo) [Compound 1, 6-cyano-3,4-dihydro-2,2-dimethyl-trans-4-(2-oxo-1-pyrrolidinyl)-2H-benzo[b]pyran-3-ol]",-46.4,–,"IC50 ([1]; amplitude of spontaneous contractions, 15 min contact time, read-out: IC50 Spontaneous (contractions)): 120 nM; IC50 ([1]; contractions due to added calcium (3 mM CaCl2) in Krebs-Henseleit with 0.05 mM CaCl2, 15 min contact time, read-out: IC50 Ca^2+ (3 mM)): 150 nM; IC50 ([3]; sustained contraction due to 30 mM KCl, read-out: IC50 30 mM KCl): 510 nM; IC50 ([3]; sustained contraction due to 90 mM KCl, read-out: IC50 90 mM KCl): > 10000 nM"
CC1(C)Oc2ccc(C#N)cc2[C@@H](N2CCCCC2=O)[C@@H]1O (relative stereo) [Compound 3],–,–,Mean % inhibition ([2]; Molar Conc 1 × 10^-6): -34.2%
"CC(=O)N[C@@H]1c2cc(C#N)ccc2OC(C)(C)[C@H]1O (relative stereo) [Compound 4, trans-4-N-acetylamino-6-cyano-3,4-dihydro-2,2-dimethyl-2H-benzo[b]pyran-3-ol]",–,-32.9,–
"CC1(C)Oc2ccc(C#N)cc2[C@@H](N2CCNCC2=O)[C@@H]1O (relative stereo) [Compound 5, 6-cyano-3,4-dihydro-2,2-dimethyl-trans 4-(2-oxo-1-piperazinyl)-2H-benzo[t]pyran-3-ol]",-37.2,–,–
"CNC(=O)N[C@@H]1c2cc(C#N)ccc2OC(C)(C)[C@H]1O (relative stereo) [Compound 6, trans-6-cyano-3,4-dihydro-2,2-dimethyl-4-(N-methylureido)-2H-1-benzo[b]pyran-3-ol]",–,-44.2,–
"CC1(C)C=C(N2CCCC2=O)c2cc(C#N)ccc2O1 [Compound 2, 6-cyano-2,2-dimethyl-4-(2-oxo-1-pyrrolidinyl)-2H-1-benzopyran]",-59.7,–,–
